What was measured:
Assay type in all cases: biochemical
HIV-1 RT [1] = biological target: T1, HIV-1 RT (Human immunodeficiency virus type 1 group M subtype B, UniProt P04585); assay: Gel-based single nucleotide incorporation assay by HIV-1 RT (primer-template P1T1); conditions: for % of P + 1 / % of P + 2: P1T1 125 nM
T1 construct: HIV-1 Reverse Transcriptase serves, in the HIV-1 viral replication process, as catalyst; purchased Ambion
Description: (§1) DNA polymerase reactions: end-labeled primer was annealed to its template by combining primer and template in a molar ratio of 1:2 and heating the mixture to 70° C. for 10 minutes followed by slow cooling to room temperature over a period of 1.5 hour. For the incorporation of a modified nucleoside, a series of 20 μL-batch reactions was performed with the enzyme HIV-1 RT (Ambion, 10 U/μL stock soln, specific activity 8.095 Wring, concentration 1.2 mg/mL). The final mixture contained 125 nM primer template complex, RT buffer (250 mM Tris.HCl, 250 mM KCl, 50 mM MgCl2, 2.5 mM spermidine, 50 mM dithiothreitol (DTT); pH 8.3), 0.025 U/μL HIV-1 RT, and different concentrations of the phosphoramidate to be tested (1 mM, 500 μM, 200 μM and 100 μM).
(§2) Electrophoresis: all polymerase reaction aliquots (2.5 μL) were quenched by the addition of 10 μL of loading buffer (90% formamide, 0.05% bromophenol blue, 0.05% xylene cyanol and 50 mM ethylenediaminetetraacetic acid (EDTA)). Samples were heated at 85° C. for 5 minutes prior to analysis by electrophoresis for 2.5 hours at 2000 V on a 30 cm×40 cm×0.4 mm 20% (19:1 mono:bis) denaturing gel in the presence of a 100 mM Tris-borate, 2.5 mM EDTA buffer; pH 8.3. Products were visualized by phosphorimaging. The amount of radioactivity in the bands corresponding to the products of enzymatic reactions was determined by using the imaging device Cyclone@ and the Optiquant image analysis software (Perkin Elmer).
Here, the ability of phosphoramidate analogues as substrate for HIV-1 RT was investigated by the gel-based single nucleotide incorporation assay. The natural nucleoside triphosphate (dATP) was used as reference.
The ability of HIV-1 reverse transcriptase to incorporate phosphoramidate analogues 2-6 was analysed by gel-based single-nucleotide-incorporation assays using the primer-template complex P1T1.

HIV-1 RT [2] = biological target: T1, HIV-1 RT; assay: Elongation of primer P1 directed by template T2 by HIV-1 RT; conditions: P1T2; for P+7 product: 60 min
Description: as §1, §2
In order to further investigate the potentiality of the leaving groups of this invention, L-Cys-dAMP (2) and 3-phosphono-L-Ala-dAMP (3) were tested in the template dependent incorporation of more than one phosphoramidate nucleotides by HIV-1 RT (FIG. 4). For this purpose, Primer P1 and template T2 containing an overhang of seven thymidine residues and four nucleobases (GGAC) at the 3′-end were used.
In order to investigate the strand elongation capacity of compound 2, a template dependent incorporation of more than one nucleotide experiment was carried out. In this experiment HIV-1 RT and P1T2 duplex, where seven thymidine bases overhang of the template is flanked by four non-thymidine units at the 3′-end were used. A range of concentration of the building block was incubated with the primer-template complex and 0.025 U/μL of enzyme at the appropriate temperature, samples were quenched after 15, 30, 60, 90 and 120 minutes respectively and analyzed by 20% polyacrylamide gel electrophoresis.

HIV-1 RT [3] = biological target: T1, HIV-1 RT; assay: Steady-state kinetics of single nucleotide incorporation by HIV-1 RT
Description: The efficiency of incorporation by HIV-1 RT of 3-phosphono-L-Ala-dAMP (3) was investigated by determination of the kinetic parameters Km and Vmax. The steady-state kinetics assay was carried out as follows. The reaction was started by adding HIV-1 RT to P1-T1 complex, buffer, 3-phosphono-L-Ala-dAMP (3) and dATP. The final mixture (20 μL) contained 0.025 U/μL HIV-1 RT, buffer, 125 nM primer-template complex, and various concentrations 3-phosphono-L-Ala-dAMP and dATP. The range of concentrations for phosphoamidates was optimized according to a Km value for the incorporation of an individual nucleotide. In the case of HIV-1 RT, reaction mixtures containing the enzyme in concentration (0.025 U/μL) to attain 5-25% conversion and appropriate substrate concentration (0.5-100 μM used for 3-phosphono-L-Ala-dAMP (3) and 0.1-10 μM used for dATP) were incubated at 37° C. and run for 8-10 different time intervals (2-20 minutes). The incorporation velocities were calculated based on the percentage of single-nucleotide extension product (P+1 band). The kinetic parameters (Vmax and Km) were determined by plotting V (nM/min) versus substrate concentration (μM) and fitting the data point to a nonlinear Michaelis-Menten regression using GraphPad Prism software.

Taq DNA polymerase = Taq DNA polymerase (Thermus aquaticus, UniProt P19821); assay: Single nucleotide incorporation using Taq DNA polymerase; conditions: P1T1
Sequence of Taq DNA polymerase (P19821 whole entry): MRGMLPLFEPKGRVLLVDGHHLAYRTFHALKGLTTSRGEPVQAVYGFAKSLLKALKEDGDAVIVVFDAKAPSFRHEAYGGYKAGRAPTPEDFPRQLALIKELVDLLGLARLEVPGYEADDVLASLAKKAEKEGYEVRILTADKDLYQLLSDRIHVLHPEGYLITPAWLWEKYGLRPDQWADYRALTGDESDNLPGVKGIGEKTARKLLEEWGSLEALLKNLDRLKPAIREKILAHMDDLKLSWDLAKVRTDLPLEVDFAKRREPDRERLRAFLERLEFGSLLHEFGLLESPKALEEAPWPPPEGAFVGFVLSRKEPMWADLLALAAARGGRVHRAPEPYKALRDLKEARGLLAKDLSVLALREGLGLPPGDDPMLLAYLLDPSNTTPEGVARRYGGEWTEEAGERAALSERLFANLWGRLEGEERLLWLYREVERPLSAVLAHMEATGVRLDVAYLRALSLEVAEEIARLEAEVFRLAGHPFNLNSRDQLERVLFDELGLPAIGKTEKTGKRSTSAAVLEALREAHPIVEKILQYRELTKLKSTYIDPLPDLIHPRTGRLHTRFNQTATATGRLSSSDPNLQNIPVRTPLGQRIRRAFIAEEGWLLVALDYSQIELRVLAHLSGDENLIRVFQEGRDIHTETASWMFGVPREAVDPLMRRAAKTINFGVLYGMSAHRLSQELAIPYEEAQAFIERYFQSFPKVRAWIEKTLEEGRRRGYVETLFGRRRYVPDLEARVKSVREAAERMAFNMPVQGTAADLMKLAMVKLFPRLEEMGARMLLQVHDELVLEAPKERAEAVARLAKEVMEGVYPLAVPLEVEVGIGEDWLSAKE
Description: 3-phosphono-L-Ala-dAMP (3) was tested as a substrate for Taq DNA polymerase (data in FIG. 5).

HIV-1 RT [4] = biological target: T1, HIV-1 RT; assay: Gel-based single nucleotide incorporation assay by HIV-1 RT (primer-template P1T1)
[5] = P1T1 125 nM, HIV-1 RT 0.025 U/μL, 37° C.

Nc1ncnc2c1ncn2[C@H]1C[C@H](O)[C@@H](COP(=O)(O)N[C@@H](CP(=O)(O)O)C(=O)O)O1 [Compound 3, 2′-deoxyadenosine-5′-(3-phosphono-L-alanine) phosphoramidate]
% of P + 1 (HIV-1 RT [1]; 50 μM substrate, 20 min): 89.9%
% of P + 1 (HIV-1 RT [1]; 50 μM substrate, 30 min): 92.6%
% of P + 1 (HIV-1 RT [1]; 50 μM substrate, 60 min): 94.6%
% of P + 1 (HIV-1 RT [1]; 50 μM substrate, 120 min): 95.9%
% of P + 1 (HIV-1 RT [1]; 100 μM substrate, 10 min): 94.8%
% of P + 1 (HIV-1 RT [1]; 100 μM substrate, 20 min): 97.7%
% of P + 1 (HIV-1 RT [1]; 100 μM substrate, 30 min): 97.6%
% of P + 1 (HIV-1 RT [1]; 100 μM substrate, 60 min): 97.9%
% of P + 1 (HIV-1 RT [1]; 100 μM substrate, 120 min): 97.5%
% of P + 1 (HIV-1 RT [1]; 200 μM substrate, 10 min): 91.7%
% of P + 2 (HIV-1 RT [1]; 200 μM substrate, 10 min): 3.0%
% of P + 1 (HIV-1 RT [1]; 200 μM substrate, 20 min): 93.8%
% of P + 2 (HIV-1 RT [1]; 200 μM substrate, 20 min): 3.4%
% of P + 1 (HIV-1 RT [1]; 200 μM substrate, 30 min): 93.7%
% of P + 2 (HIV-1 RT [1]; 200 μM substrate, 30 min): 3.6%
% of P + 1 (HIV-1 RT [1]; 200 μM substrate, 60 min): 93.0%
% of P + 2 (HIV-1 RT [1]; 200 μM substrate, 60 min): 4.3%
% of P + 1 (HIV-1 RT [1]; 200 μM substrate, 120 min): 94.2%
% of P + 2 (HIV-1 RT [1]; 200 μM substrate, 120 min): 3.6%
% of P + 1 (HIV-1 RT [1]; 500 μM substrate, 10 min): 88.8%
% of P + 2 (HIV-1 RT [1]; 500 μM substrate, 10 min): 7.5%
% of P + 1 (HIV-1 RT [1]; 500 μM substrate, 20 min): 88.4%
% of P + 2 (HIV-1 RT [1]; 500 μM substrate, 20 min): 9.6%
% of P + 1 (HIV-1 RT [1]; 500 μM substrate, 30 min): 86.9%
% of P + 2 (HIV-1 RT [1]; 500 μM substrate, 30 min): 11.1%
% of P + 1 (HIV-1 RT [1]; 500 μM substrate, 60 min): 87.0%
% of P + 2 (HIV-1 RT [1]; 500 μM substrate, 60 min): 11.2%
% of P + 1 (HIV-1 RT [1]; 500 μM substrate, 120 min): 87.0%
% of P + 2 (HIV-1 RT [1]; 500 μM substrate, 120 min): 11.5%
% of P + 1 (HIV-1 RT [1]; 1 mM substrate, 10 min): 80.6%
% of P + 2 (HIV-1 RT [1]; 1 mM substrate, 10 min): 16.7%
% of P + 1 (HIV-1 RT [1]; 1 mM substrate, 20 min): 73.7%
% of P + 2 (HIV-1 RT [1]; 1 mM substrate, 20 min): 23.7%
% of P + 1 (HIV-1 RT [1]; 1 mM substrate, 30 min): 75.9%
% of P + 2 (HIV-1 RT [1]; 1 mM substrate, 30 min): 22.1%
% of P + 1 (HIV-1 RT [1]; 1 mM substrate, 60 min): 76.3%
% of P + 2 (HIV-1 RT [1]; 1 mM substrate, 60 min): 21.9%
% of P + 1 (HIV-1 RT [1]; 1 mM substrate, 120 min): 76.4%
% of P + 2 (HIV-1 RT [1]; 1 mM substrate, 120 min): 21.7%
fold more efficient incorporation compared with L-Cys-dAMP (2) (HIV-1 RT [1]; HIV-1 RT single nucleotide incorporation): 10.7 fold
primer extension products (in words) (HIV-1 RT [2]; 50 μM and 100 μM substrate): only extended a primer with two and three adenine nucleobases
P+7 product (HIV-1 RT [2]; 200 μM substrate): 7.1%
P+7 product (HIV-1 RT [2]; 500 μM substrate): 15.9%
P+7 product (HIV-1 RT [2]; 1 mM substrate): 23.8%
incorporation activity relative to natural dATP (HIV-1 RT [2]): less active than the natural dATP
misincorporation (P+8) (HIV-1 RT [2]): did not result in any misincorporation
Km fold higher than the natural substrate dATP (HIV-1 RT [3]): 15 fold
Vmax fold lower than dATP (HIV-1 RT [3]): 1.7 fold
Km (HIV-1 RT [3]; [5]): 14.3 ± 3.78 µM
Vmax (HIV-1 RT [3]; [5]): 19.21 ± 1.58 nM/min
incorporation and primer extension by Taq DNA polymerase (in words) (Taq DNA polymerase): less active than HIV-1 RT
Incorporation (conversion to a P+1 strand) (HIV-1 RT [4]; 10 μM substrate): 27.1%
% of P + 1 (HIV-1 RT [4]; 50 μM substrate, 10 min, P1T1 125 nM): 84.5%
substrate quality for HIV-1 RT (in words) (HIV-1 RT [4]; among phosphoramidate analogues 1-5): best incorporation efficiency

Reference: patent US20120245029A1, “NOVEL PHOSPH(ON)ATE- AND SULF(ON)ATE-BASED PHOSPHATE MODIFIED NUCLEOSIDES USEFUL AS SUBSTRATES FOR POLYMERASES AND AS ANTIVIRAL AGENTS” (priority 2009, published 2012)
